Laboratory results reported in patent US10561703B2, “Method of modulating sex hormone levels using a sex hormone secretion modulator” (GEMVAX & KAEL CO., LTD., priority 2013, dated 2020).

System: Testosterone
Test: Testosterone level in blood (serum CLIA) after repeated sc PEP-1
Assay type: in vivo, SD rats
Protocol: PEP-1 (peptide of SEQ ID NO: 1), lyophilized white powder, obtained according to the method mentioned in example 1 was dissolved in 0.9% of saline, considering the correction factor of PEP-1 (purity: 94.13%, content: 92.36%, correction factor: 1.15). 50 mg/mL stock solution was further diluted into 20 mg/mL, 2 mg/mL, and 1 mg/mL with 0.9% saline, and stored at 4° C. for a week until the use.
The purpose of this example is to confirm the change of sexual hormones in blood from SD rats with 7 days repeated daily administration of SEQ ID NO: 1 peptide, PEP-1. This experiment followed the Ethics Regulation of Animal Test by KAMSI Inc. (Korea Animal Medical Science Institute). In addition, this experiment, Non-GLP experiment, referred to the MFDS (Ministry of Food and Drug Safety) notification; Agent 2013-40 (5th April 2013), Principles of Good Laboratory Practice (1997).
SPF Rats (Crlj:CD(SD)) were purchased from ORIENTBio Inc. (Mokdong-ri, Buk-myeon, Gapyeong-gun, Gyeonggi-do, Republic of Korea). 75 male (6.5 weeks old and 190˜210 g) and 75 female (6.5 weeks old and 160˜180 g) rats were monitored for 4 days, and 64 of male and female rats (each) were selected for the experiment. Raising condition is as follows; 23±3° C. of temperature, […] of relative humidity, 10˜20 times/hr of number of air changes, 12 hours (8 a.m.˜8 p.m.) of lighting with 150˜300 Lux of intensity.
64 male and female […] (mentioned above) were divided into 8 groups. Administration regimen, for example, drugs, routes, dosages, and volumes were as follows:
The detailed administration regimen is as follows; once a day, twice a day and twice a week in each experimental group. Injection initiated at 10 a.m. every day, and each rat was injected at one minute intervals. Rats in Group 9, 10, 13 and 14 were injected twice a week. Administration of high dose test agent preceded that of low dose. The volume of injection was calculated using recently measured weight of rats, and it was 5 mL/kg. Subcutaneous injection was performed as follows; assistant tilted the back of rat upward, and experimenter sterilized the back of rat with 70% alcohol, followed by subcutaneous injection of test agent with 26 G syringe.
1.4 mL of blood sample (0.7 mL of serum) was collected after measurement of weight (Day 0). Next day (1 Day), 1.4 mL of blood sample (0.7 mL of serum) was collected twice after injection of test agent (4 hrs and 8 hrs after administration of test agent). For next 6 days (Day 2˜Day 7), 1.4 mL of blood was extracted once everyday (4 hours after injection of test agent). Dose and volume of test agent of each group followed the Table 3, and injection time zone was same every day. Blood was extracted from the jugular vein, and left at room temperature for 30 minutes. Serum was separated using centrifugation (10,000 rpm for 5 minutes), and stored at −70±5° C. in Deep freezer until the use. Blood extraction from each subject was done in the same time zone every day.
A CLIA (Chemi-Luminescence Immune Assay) Kit was used to analyze Testosterone, Estradiol E2, FSH (Follicle stimulating hormone), and LH (Luteinizing hormone). Analysis was completed within 48 hrs after blood extraction (Laboratory Medicine Department, Chung-Ang University Hospital), and detailed method is as follows; One-way ANOVA was used to verify the comparison between the vehicle and PEP-1, and between different doses of PEP-1. For further analysis, Duncan test was used as parametric test and Dunnett's test as non-parametric test. p<0.05 represents the statistical significance, and all statistical analysis was carried out with SPSS 10.1.
Testosterone was analyzed using the samples prepared from example 2. 15 μL of serum was used for analysis. Fundamentals of analysis is competitive immunoassay based on direct chemi-luminescent. As mentioned in example 2, CLIA (Chemi-luminescence immune assay) Kit was used for Testosterone analysis, following the manufacture's protocol. […]

Sequence: EARPALLTSRLRFIPK (listed as Homo sapiens) [PEP-1, hormone secretion modulator / GnRH analog]
- Testosterone level in blood (G3 Female 5 mg/kg sc 1/day x7, 7 days): 2.91 ng/dL
- Testosterone level in blood (G4 Male 5 mg/kg sc 1/day x7, 4 hr): 0.12 ng/dL
- Testosterone level in blood (G4 Male 5 mg/kg sc 1/day x7, 8 hr): 0.06 ng/dL
- Testosterone level in blood (G4 Male 5 mg/kg sc 1/day x7, 2 days): 0.04 ng/dL
- Testosterone level in blood (G4 Male 5 mg/kg sc 1/day x7, 3 days): 0.06 ng/dL
- Testosterone level in blood (G4 Male 5 mg/kg sc 1/day x7, 4 days): 0.15 ng/dL
- Testosterone level in blood (G4 Male 5 mg/kg sc 1/day x7, 5 days): 0.13 ng/dL
- Testosterone level in blood (G4 Male 5 mg/kg sc 1/day x7, 6 days): 0.19 ng/dL
- Testosterone level in blood (G4 Male 5 mg/kg sc 1/day x7, 7 days): 0.19 ng/dL
- Testosterone level in blood (G4 Male 5 mg/kg sc 1/day x7, pre): 0.2 ng/dL
- Testosterone level in blood (G6 Male 10 mg/kg sc 1/day x7, 4 hr): 0.15 ng/dL
- Testosterone level in blood (G6 Male 10 mg/kg sc 1/day x7, 8 hr): 0.01 ng/dL
- Testosterone level in blood (G6 Male 10 mg/kg sc 1/day x7, 2 days): 0.01 ng/dL
- Testosterone level in blood (G6 Male 10 mg/kg sc 1/day x7, 3 days): 0.05 ng/dL
- Testosterone level in blood (G6 Male 10 mg/kg sc 1/day x7, 4 days): 0.12 ng/dL
- Testosterone level in blood (G6 Male 10 mg/kg sc 1/day x7, 5 days): 0.1 ng/dL
- Testosterone level in blood (G6 Male 10 mg/kg sc 1/day x7, 6 days): 0.12 ng/dL
- Testosterone level in blood (G6 Male 10 mg/kg sc 1/day x7, 7 days): 0.11 ng/dL
- Testosterone level in blood (G6 Male 10 mg/kg sc 1/day x7, pre): 0.13 ng/dL
- Testosterone level in blood (G8 Male 10 mg/kg sc 2/day x4, 4 hr): 0.12 ng/dL
- Testosterone level in blood (G8 Male 10 mg/kg sc 2/day x4, 8 hr): 0.04 ng/dL
- Testosterone level in blood (G8 Male 10 mg/kg sc 2/day x4, 2 days): 0.01 ng/dL
- Testosterone level in blood (G8 Male 10 mg/kg sc 2/day x4, 3 days): 0.07 ng/dL
- Testosterone level in blood (G8 Male 10 mg/kg sc 2/day x4, 4 days): 0.05 ng/dL
- Testosterone level in blood (G8 Male 10 mg/kg sc 2/day x4, 5 days): 0.18 ng/dL
- Testosterone level in blood (G8 Male 10 mg/kg sc 2/day x4, 6 days): 0.08 ng/dL
- Testosterone level in blood (G8 Male 10 mg/kg sc 2/day x4, 7 days): 0.12 ng/dL
- Testosterone level in blood (G8 Male 10 mg/kg sc 2/day x4, pre): 0.17 ng/dL
- Testosterone level in blood (G9 Female 10 mg/kg sc 2/week x2 (days 1,7), 4 hr): 7.92 ng/dL
- Testosterone level in blood (G9 Female 10 mg/kg sc 2/week x2 (days 1,7), 8 hr): 7.57 ng/dL
- Testosterone level in blood (G9 Female 10 mg/kg sc 2/week x2 (days 1,7), 2 days): 0.9 ng/dL
- Testosterone level in blood (G9 Female 10 mg/kg sc 2/week x2 (days 1,7), 3 days): 1.05 ng/dL
- Testosterone level in blood (G9 Female 10 mg/kg sc 2/week x2 (days 1,7), 4 days): 1.21 ng/dL
- Testosterone level in blood (G9 Female 10 mg/kg sc 2/week x2 (days 1,7), 5 days): 1.73 ng/dL
- Testosterone level in blood (G9 Female 10 mg/kg sc 2/week x2 (days 1,7), 6 days): 1.67 ng/dL
- Testosterone level in blood (G9 Female 10 mg/kg sc 2/week x2 (days 1,7), 7 days): 9.43 ng/dL
- Testosterone level in blood (G9 Female 10 mg/kg sc 2/week x2 (days 1,7), pre): 2.3 ng/dL
- Testosterone level in blood (G10 Male 10 mg/kg sc 2/week x2 (days 1,7), 4 hr): 0.16 ng/dL
- Testosterone level in blood (G10 Male 10 mg/kg sc 2/week x2 (days 1,7), 8 hr): 0.02 ng/dL
- Testosterone level in blood (G10 Male 10 mg/kg sc 2/week x2 (days 1,7), 2 days): 0 ng/dL
- Testosterone level in blood (G10 Male 10 mg/kg sc 2/week x2 (days 1,7), 3 days): 0.06 ng/dL
- Testosterone level in blood (G10 Male 10 mg/kg sc 2/week x2 (days 1,7), 4 days): 0.17 ng/dL
- Testosterone level in blood (G10 Male 10 mg/kg sc 2/week x2 (days 1,7), 5 days): 0.08 ng/dL
- Testosterone level in blood (G10 Male 10 mg/kg sc 2/week x2 (days 1,7), 6 days): 0.1 ng/dL
- Testosterone level in blood (G10 Male 10 mg/kg sc 2/week x2 (days 1,7), 7 days): 0.13 ng/dL
- Testosterone level in blood (G10 Male 10 mg/kg sc 2/week x2 (days 1,7), pre): 0.15 ng/dL
- Testosterone level in blood (G11 Female 100 mg/kg sc 1/day x7, 4 hr): 7.73 ng/dL
- Testosterone level in blood (G11 Female 100 mg/kg sc 1/day x7, 8 hr): 7.41 ng/dL
- Testosterone level in blood (G11 Female 100 mg/kg sc 1/day x7, 2 days): 3.92 ng/dL
- Testosterone level in blood (G11 Female 100 mg/kg sc 1/day x7, 3 days): 1.55 ng/dL
- Testosterone level in blood (G11 Female 100 mg/kg sc 1/day x7, 4 days): 0.63 ng/dL
- Testosterone level in blood (G11 Female 100 mg/kg sc 1/day x7, 5 days): 0.55 ng/dL
